In one test the test system is HepG2 tumor cells. Description: In vitro tumor cell proliferation inhibition test (CCK-8), HepG2. The test is classed as cell-based. Particulars: Homo sapiens, HepG2, 76 hours incubation. The procedure:
(§1) The objective of this experiment is to test the in vitro inhibition effect of the formula (D) according to the present invention on the proliferation of HepG2 tumor cells (human hepatocellular carcinoma cells, Chinese Academy of Sciences cell bank, No. #TCHu 72) and A549 tumor cells (human lung adenocarcinoma, Chinese Academy of Sciences cell bank, No. #TCHu150). The cells were treated with different concentrations of the compound in vitro. After 76 hours incubation, the cell proliferation was detected by CCK-8 reagent (Cell Counting Kit-8, Dojindo, No. CK04), and the activity of the compound in vitro was evaluated according to the IC50 value.
(§2) The following is an example of a method for in vitro proliferation inhibition test of HepG2 cells for the purpose of exemplifying the test of the compounds according to the present invention for the proliferation inhibitory activity on tumor cells in vitro. This method is also applicable to, but not limited to, the in vitro proliferation inhibition tests on other tumor cells.
HepG2 cells in logarithmic growth phase were washed with PBS (phosphate buffer, ThermoFisher) once, and added with 2-3 ml trypsin (0.25% trypsin-EDTA (1×), Gibico, Life Technologies) to digest for 2-3 min. Then, 10-15 ml of cell culture medium (DMEM/F12 medium, Invitrogen; 10% (v/v)) was added after the cells were completely digested. The digested HepG2 cells were eluted, and centrifuged at 1000 rpm for 3 min. The supernatant was discarded, and then 10-20 ml of cell culture medium were added to resuspend the cells to prepare a single cell suspension.
The HepG2 single cell suspension was mixed and the cell density was adjusted to 6×10^4 cells/ml with cell culture medium. The density-adjusted cell suspension was mixed uniformly and added to a 96-well cell culture plate at 100 μl/well. The plates were incubated in a 5% CO2 incubator at 37° C. for 18-20 hours.
(§3) The compound was dissolved with DMSO (dimethylsulfoxide, Shanghai Titan Technology Co., Ltd.) to prepare a storage solution having an initial concentration of 10 mM.
(§4) 10 μl of 10 mM compound was added to the wells of the first column of a U-shaped bottom 96-well plate (sample plate 1), and 90 μl of DMSO was added to each compound sample well of the first column, i.e., the stock solution was diluted 10 times as the starting point. Then, 3-fold gradient dilutions were performed, with each compound concentration […]. The diluent was DMSO solution. 60 μl of 100% DMSO was added to 12th column and 20 μl of 1 mM positive drug control was added to 11th column.
(§5) In a new U-shaped bottom 96-well plate (sample plate 2), each sample from the sample plate 1 was diluted 20 times with the complete medium. Then, in another new U-shaped bottom 96-well plate (sample plate 3), each well sample from the sample plate 2 was subjected to a final 10-fold dilution.
(§6) After the cell pre-culture was completed, the 96-well cell culture plate was removed and the supernatant was discarded. Each sample dilution in the 96-well sample plate 3 was successively added to a 96-well cell culture plate at 100 μl/well. Each compound sample was tested in duplicate at each concentration. […] After completion of the loading operation, the 96-well cell culture plate was incubated at 37° C. for about 76 hours in a 5% CO2 incubator.
(§7) The 96-well cell culture plate was taken and CCK-8 was added to each well at […]. The cell culture plate was gently pat and mixed for more than 10 times and incubated at 37° C. for 2 hours in a 5% CO2 incubator.
(§8) The 96-well cell culture plate was taken and placed in a microplate reader (PerkinElmer, VICTOR 3) and the absorbance at 450 nm was measured using the microplate reader.
(§9) Data was analyzed with Microsoft Excel and Graphpad Prism 5.

The subject of another test is A549 tumor cells. Kind of test: In vitro tumor cell proliferation inhibition test (CCK-8), A549. In kind it is cell-based. The following applies: Homo sapiens, A549, 76 hours incubation. The method, then: as §1, §2, §3, §4, §5, §6, §7, §8
In accordance with the above procedure, the inhibition activity of the compound according to the present invention on the proliferation of A549 tumor cells in vitro was tested. The cell culture medium was also DMEM/F12.
as §9

Numbered stars: 1 amine (or outer) side, 2 acyl side, 3 side chain; on linkers, the order of the positions; unused ones are H or OH. Square brackets hold non-standard residues; d marks the D form. Peptide text beside a SMILES is read from it. X1 = CO[C@H]([C@@H](C)C(=O)[*:2])[C@@H]1C[C@@H]2C[C@@H]2N1[*:1]; Dolaproine = CO[C@@H]([C@@H]1CCCN1)[C@@H](C)C(=O)O; Dil = CC[C@H](C)[C@H](NC)[C@@H](CC(=O)O)OC; Phe(3-Cl) = N[C@@H](Cc1cccc(Cl)c1)C(=O)O; Phe(3-F) = N[C@@H](Cc1cccc(F)c1)C(=O)O; Phe(4-Me) = Cc1ccc(C[C@H](N)C(=O)O)cc1; Phe(2-F) = N[C@@H](Cc1ccccc1F)C(=O)O; 2Thi = N[C@@H](Cc1cccs1)C(=O)O; NMeV = CN[C@H](C(=O)O)C(C)C

For `CC[C@H](C)[C@@H]([C@@H](CC(=O)N1[C@H]2C[C@H]2C[C@H]1[C@H](OC)[C@@H](C)C(=O)N[C@@H](Cc1cccs1)C(=O)O)OC)N(C)C(=O)[C@@H](NC(=O)[C@@H](NC)C(C)C)C(C)C` [Compound 16, (S)-2-((2R,3R)-3-((1S,3S,5S)-2-((3R,4S,5S)-4-((S)—N,3-dimethyl-2-((S)-3-methyl-2-(methylamino)butanamido)butanamido)-3-methoxy-5-methylheptanoyl)-2-azabicyclo[3.1.0]hexan-3-yl)-3-methoxy-2-methylpropanamido)-3-(thiophen-2-yl)propanoic acid] (H-[NMeV]V[Dil][X1][2Thi]-OH), the IC50 (in general, the concentration that gives 50% inhibition) in the test on HepG2 tumor cells was found to be 13.9 nM; with A549 tumor cells, 53 nM.

For the molecule `CC[C@H](C)[C@@H]([C@@H](CC(=O)N1CCC[C@H]1[C@H](OC)[C@@H](C)C(=O)N[C@@H](Cc1ccccc1F)C(=O)O)OC)N(C)C(=O)[C@@H](NC(=O)[C@@H](NC)C(C)C)C(C)C` [Compound 25, (S)-2-((2R,3R)-3-((S)-1-((3R,4S,5S)-4-((S)—N,3-dimethyl-2-((S)-3-methyl-2-(methylamino)butanamido)butanamido)-3-methoxy-5-methylheptanoyl)pyrrolidin-2-yl)-3-methoxy-2-methylpropanamido)-3-(2-fluorophenyl)propanoic acid] (H-[NMeV]V[Dil][Dolaproine][Phe(2-F)]-OH), the IC50 was determined as 175 nM in the test on HepG2 tumor cells and 200 nM with A549 tumor cells.

Consider `CC[C@H](C)[C@@H]([C@@H](CC(=O)N1CCC[C@H]1[C@H](OC)[C@@H](C)C(=O)N[C@@H](Cc1ccc(C)cc1)C(=O)O)OC)N(C)C(=O)[C@@H](NC(=O)[C@@H](NC)C(C)C)C(C)C` [Compound 29, (S)-2-((2R,3R)-3-((S)-1-((3R,4S,5S)-4-((S)—N,3-dimethyl-2-((S)-3-methyl-2-(methylamino)butanamido)butanamido)-3-methoxy-5-methylheptanoyl)pyrrolidin-2-yl)-3-methoxy-2-methylpropanamido)-3-(p-tolyl)propanoic acid] (H-[NMeV]V[Dil][Dolaproine][Phe(4-Me)]-OH), for which the IC50 with HepG2 tumor cells turned out to be 58.6 nM; with A549 tumor cells it was 1.8 nM.

For `CC[C@H](C)[C@@H]([C@@H](CC(=O)N1CCC[C@H]1[C@H](OC)[C@@H](C)C(=O)N[C@@H](Cc1cccc(Cl)c1)C(=O)O)OC)N(C)C(=O)[C@@H](NC(=O)[C@@H](NC)C(C)C)C(C)C` [Compound 31, (S)-3-(3-chlorophenyl)-2-((2R,3R)-3-((S)-1-((3R,4S,5S)-4-((S)—N,3-dimethyl-2-((S)-3-methyl-2-(methylamino)butanamido)butanamido)-3-methoxy-5-methylheptanoyl)pyrrolidin-2-yl)-3-methoxy-2-methylpropanamido)propanoic acid] (H-[NMeV]V[Dil][Dolaproine][Phe(3-Cl)]-OH), the IC50 in the test with HepG2 tumor cells amounted to 100 nM; with A549 tumor cells it was 130 nM.

As to `CC[C@H](C)[C@@H]([C@@H](CC(=O)N1CCC[C@H]1[C@H](OC)[C@@H](C)C(=O)N[C@@H](Cc1cccc(F)c1)C(=O)O)OC)N(C)C(=O)[C@@H](NC(=O)[C@@H](NC)C(C)C)C(C)C` [Compound 32, (S)-2-((2R,3R)-3-((S)-1-((3R,4S,5S)-4-((S)—N,3-dimethyl-2-((S)-3-methyl-2-(methylamino)butanamido)butanamido)-3-methoxy-5-methylheptanoyl)pyrrolidin-2-yl)-3-methoxy-2-methylpropanamido)-3-(3-fluorophenyl)propanoic acid] (H-[NMeV]V[Dil][Dolaproine][Phe(3-F)]-OH), the IC50 in the test with HepG2 tumor cells came out at 17.4 nM; in the test on A549 tumor cells it was 13.5 nM.

(Values after US20180177890A1, “LIGAND-CYTOTOXIC DRUG CONJUGATE, PREPARATION METHOD THEREOF, AND USE THEREOF” (priority 2015, published 2018).)
